Reference: patent publication US20240228458A1, “PYRIMIDINE DERIVATIVE HAVING PROTEIN KINASE INHIBITORY ACTIVITY, AND THERAPEUTIC PHARMACEUTICAL COMPOSITION COMPRISING SAME” (THERAPEX CO., LTD., priority 2021, published 2024)

Key:
Type in all cases: cell-based
[1] = test system: Ba/F3 cells expressing EGFR-wt; test: Growth inhibition (GI50) of Ba/F3 cells expressing EGFR-wt, Celltiter glo; conditions: Mus musculus, BaF3, 72 h
How it was run: (§1)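 Ba/F3 cells carrying each EGFR variant were plated at 100,000 cells/ml; after 4 h, compound was added as 10-point 4-fold dilutions (top stock 2 mM, 0.5% DMSO). After 72 h at 37 °C, viability was read by CellTiter-Glo; GI50 is the molar concentration (μM) giving 50% growth inhibition.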

[2] = test system: Ba/F3 cells expressing del19/T790M/C797S (EGFR-DTC); test: Growth inhibition (GI50) of Ba/F3 cells expressing del19/T790M/C797S (EGFR-DTC), Celltiter glo; conditions: Mus musculus, BaF3, 72 h
How it was run: as §1

[3] = test system: Ba/F3 cells expressing L858R/T790M/C797S (EGFR-LTC); test: Growth inhibition (GI50) of Ba/F3 cells expressing L858R/T790M/C797S (EGFR-LTC), Celltiter glo; conditions: Mus musculus, BaF3, 72 h
How it was run: as §1

[4] = test system: Ba/F3 cells expressing del19/T790M (EGFR-DT); test: Growth inhibition (GI50) of Ba/F3 cells expressing del19/T790M (EGFR-DT), Celltiter glo; conditions: Mus musculus, BaF3, 72 h
How it was run: as §1

[5] = test system: Ba/F3 cells expressing L858R/T790M (EGFR-LT); test: Growth inhibition (GI50) of Ba/F3 cells expressing L858R/T790M (EGFR-LT), Celltiter glo; conditions: Mus musculus, BaF3, 72 h
How it was run: as §1

[6] = test system: parental Ba/F3 cell line; test: Growth inhibition (GI50) of the parental Ba/F3 cell line (not introduced with EGFR variants), Celltiter glo; conditions: Mus musculus, BaF3, 72 h, parental Ba/F3 cells
How it was run: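 Parental Ba/F3 cells (100,000 cells/ml) were treated with 10-point, 4-fold compound dilutions (0.5% DMSO; top stock 2 mM) for 72 h at 37 °C, 5% CO2. Viability was read by CellTiter-Glo; GI50 is the concentration (μM) giving 50% growth inhibition.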

Compound	GI50 [1] [nM]	GI50 [2] [nM]	GI50 [3] [nM]	GI50 [4] [nM]	GI50 [5] [nM]	GI50 [6] [nM]
COc1cc(N2CCC(N3CCN(C)CC3)CC2)c(C)cc1Nc1ncc(Br)c(Nc2ccccc2N=S(C)(C)=O)n1 [Example 142]	500 to 2000	100 to 500	25 to 100	500 to 2000	500 to 2000	500 to 2000
COc1cc(N2CCC(N3CCN(C)CC3)CC2)c(Cl)cc1Nc1ncc(Br)c(Nc2ccccc2N=S(C)(C)=O)n1 [Example 143]	100 to 500	100 to 500	100 to 500	500 to 2000	500 to 2000	100 to 500
Cc1cc(Nc2ncc(Br)c(Nc3ccccc3N=S(C)(C)=O)n2)c(Cl)cc1N1CCC(N2CCN(C)CC2)CC1 [Example 144]	500 to 2000	500 to 2000	100 to 500	500 to 2000	100 to 500	500 to 2000
COc1cc(N2CCC(N3CCC(C(F)(F)F)CC3)CC2)c(C)cc1Nc1ncc(Br)c(Nc2ccc(F)cc2NS(C)(=O)=O)n1 [Example 148, N-(2-((5-bromo-2-((2-methoxy-5-methyl-4-(4-(trifluoromethyl)-[1,4′-bipiperidin]-1′-yl)phenyl)amino)pyrimidin-4-yl)amino)-5-fluorophenyl)methanesulfonamide]	500 to 2000	100 to 500	100 to 500	100 to 500	500 to 2000	500 to 2000
COc1cc(N2CCC(N3CCCC(N(C)C)C3)CC2)c(Cl)cc1Nc1ncc(Br)c(Nc2ccc(F)cc2NS(C)(=O)=O)n1 (stereo not drawn) [Example 149, N-(2-((5-bromo-2-((5-chloro-4-(3-(dimethylamino)-[1,4′-bipiperidin]-1′-yl)-2-methoxyphenyl)amino)pyrimidin-4-yl)amino)-5-fluorophenyl)methanesulfonamide]	100 to 500	100 to 500	25 to 100	100 to 500	100 to 500	100 to 500
COc1cc(N2CCC(N3CCN(C)CC3)CC2)c(C)cc1Nc1nnc(Cl)c(Nc2cc(Cl)ccc2NS(C)(=O)=O)n1 [Example 152, N-(4-chloro-2-((6-chloro-3-((-2-methoxy-5-methyl-4-(4-(4-methylpiperazin-1-yl)piperidin-1-yl)phenyl)amino)-1,2,4-triazin-5-yl)amino)phenyl)methanesulfonamide]	100 to 500	1 to 25	1 to 25	1 to 25	1 to 25	500 to 2000
COc1cc(N2CCC(N3CCN(C)CC3)CC2)c(C)cc1Nc1ncc(Cl)c(Nc2cc(Cl)ccc2P(C)(C)=O)n1 [Example 153, (4-chloro-2-((5-chloro-2-((2-methoxy-5-methyl-4-(4-(4-methylpiperazin-1-yl)piperidin-1-yl)phenyl)amino)pyrimidin-4-yl)amino)phenyl)dimethylphosphine oxide]	500 to 2000	100 to 500	100 to 500	100 to 500	500 to 2000	2000 to 10000
Cc1cc(Nc2ncc(Cl)c(Nc3cc(Cl)ccc3P(C)(C)=O)n2)c(Cl)cc1N1CCC(N2CCN(C)CC2)CC1 [Example 154, (4-chloro-2-((5-chloro-2-((2-chloro-5-methyl-4-(4-(4-methylpiperazin-1-yl)piperidin-1-yl)phenyl)amino)pyrimidin-4-yl)amino)phenyl)dimethylphosphine oxide]	2000 to 10000	100 to 500	500 to 2000	500 to 2000	2000 to 10000	2000 to 10000
COc1cc(N2CCC(N3CCN(C)CC3)CC2)c(C)cc1Nc1ncc(Br)c(Nc2cc(Cl)ccc2N(C)S(C)(=O)=O)n1 [Example 155, N-(2-((5-bromo-2-((2-methoxy-5-methyl-4-(4-(4-methylpiperazin-1-yl)piperidin-1-yl)phenyl)amino)pyrimidin-4-yl)amino)-4-chlorophenyl)-N-methylmethanesulfonamide]	25 to 100	1 to 25	1 to 25	1 to 25	25 to 100	100 to 500
COc1cc(N2CCC(N3CCN(C)CC3)CC2)c(Cl)cc1Nc1ncc(Br)c(Nc2cc(Cl)ccc2N(C)S(C)(=O)=O)n1 [Example 156, N-(2-((5-bromo-2-((5-chloro-2-methoxy-4-(4-(4-methylpiperazin-1-yl)piperidin-1-yl)phenyl)amino)pyrimidin-4-yl)amino)-4-chlorophenyl)-N-methylmethanesulfonamide]	1 to 25	1 to 25	1 to 25	1 to 25	1 to 25	100 to 500
Cc1cc(Nc2ncc(Cl)c(Nc3cc(Cl)ccc3NS(C)(=O)=O)n2)c(Cl)cc1N1CCC(N2CCC(N(C)C)C2)CC1 (stereo not drawn) [Example 157, N-(4-chloro-2-((5-chloro-2-((2-chloro-4-(4-(3-(dimethylamino)pyrrolidin-1-yl)piperidin-1-yl)-5-methylphenyl)amino)pyrimidin-4-yl)amino)phenyl)methanesulfonamide]	100 to 500	100 to 500	25 to 100	25 to 100	25 to 100	500 to 2000
Cc1cc(Nc2ncc(Cl)c(Nc3cc(Cl)ccc3NS(C)(=O)=O)n2)c(Cl)cc1N1CCC(N2CCN(C)CC2)CC1 [Example 158, N-(4-chloro-2-((5-chloro-2-((2-chloro-5-methyl-4-(4-(4-methylpiperazin-1-yl)piperidin-1-yl)phenyl)amino)pyrimidin-4-yl)amino)phenyl)methanesulfonamide]	500 to 2000	1 to 25	1 to 25	25 to 100	25 to 100	2000 to 10000
COc1cc(N2CCC(N3CCN(C)CC3)CC2)c(C)cc1Nc1ncc(Cl)c(Nc2cc(C(C)C)ccc2NS(C)(=O)=O)n1 [Example 160, N-(2-((5-chloro-2-((2-methoxy-5-methyl-4-(4-(4-methylpiperazin-1-yl)piperidin-1-yl)phenyl)amino)pyrimidin-4-yl)amino)-4-isopropylphenyl)methanesulfonamide]	500 to 2000	25 to 100	100 to 500	100 to 500	100 to 500	2000 to 10000
COc1cc(N2CCC(N3CCN(C)CC3)CC2)c(Cl)cc1Nc1ncc(Cl)c(Nc2cc(C(C)C)ccc2NS(C)(=O)=O)n1 [Example 161, N-(2-((5-chloro-2-((5-chloro-2-methoxy-4-(4-(4-methylpiperazin-1-yl)piperidin-1-yl)phenyl)amino)pyrimidin-4-yl)amino)-4-isopropylphenyl)methanesulfonamide]	2000 to 10000	100 to 500	500 to 2000	100 to 500	500 to 2000	2000 to 10000
Cc1cc(Nc2ncc(Cl)c(Nc3cc(Cl)ccc3NS(C)(=O)=O)n2)c(Cl)cc1N1CCC(N2CCCN(C)CC2)CC1 [Example 162, N-(4-chloro-2-((5-chloro-2-((2-chloro-5-methyl-4-(4-(4-methyl-1,4-diazepan-1-yl)piperidin-1-yl)phenyl)amino)pyrimidin-4-yl)amino)phenyl)methanesulfonamide]	500 to 2000	100 to 500	2000 to 10000	2000 to 10000	2000 to 10000	2000 to 10000
COc1cc(N2CCC(N3CCCN(C)CC3)CC2)c(Cl)cc1Nc1ncc(Cl)c(Nc2cc(Cl)ccc2NS(C)(=O)=O)n1 [Example 163, N-(4-chloro-2-((5-chloro-2-((5-chloro-2-methoxy-4-(4-(4-methyl-1,4-diazepan-1-yl)piperidin-1-yl)phenyl)amino)pyrimidin-4-yl)amino)phenyl)methanesulfonamide]	2000 to 10000	100 to 500	2000 to 10000	2000 to 10000	2000 to 10000	> 10000
COc1cc(N2CCC(N3CCN(C)CC3)CC2)c(C)cc1Nc1nnc(Cl)c(Nc2ccc(F)cc2NS(C)(=O)=O)n1 [Example 164, N-(2-((6-chloro-3-((2-methoxy-5-methyl-4-(4-(4-methylpiperazin-1-yl)piperidin-1-yl)phenyl)amino)-1,2,4-triazin-5-yl)amino)-5-fluorophenyl)methanesulfonamide]	2000 to 10000	100 to 500	2000 to 10000	2000 to 10000	2000 to 10000	> 10000
COc1cc(N2CCC(N3CCCN(C)CC3)CC2)c(C)cc1Nc1ncc(Cl)c(Nc2cc3c(cc2NS(C)(=O)=O)CCO3)n1 [Example 165, N-(6-((5-chloro-2-((2-methoxy-5-methyl-4-(4-(4-methyl-1,4-diazepan-1-yl)piperidin-1-yl)phenyl)amino)pyrimidin-4-yl)amino)-2,3-dihydrobenzofuran-5-yl)methanesulfonamide]	500 to 2000	25 to 100	25 to 100	25 to 100	25 to 100	2000 to 10000
CN(C)CCCn1cc(Nc2ncc(Cl)c(Nc3cc(Cl)ccc3NS(C)(=O)=O)n2)cn1 [Example 167, N-(4-chloro-2-((5-chloro-2-((1-(3-(dimethylamino)propyl)-1H-pyrazol-4-yl)amino)pyrimidine-4-yl)amino)phenyl)methanesulfonamide]	500 to 2000	100 to 500	2000 to 10000	2000 to 10000	2000 to 10000	2000 to 10000
